Source: patent US8519136B2, “Aminopyridine derivatives having aurora a selective inhibitory action” (MSD K.K., priority 2008, dated 2013)
Structures can show the parent of a compound that is named as a salt.

Key:
[1] = test system: Human cervical cancer cells (HeLa S3); test: Effect by combined use of drugs in cells (with docetaxel), WST-8 method; format: cell-based; details: HeLa S3, three days; for inhibition at 0.03 µM: compound 30 nM alone
Protocol: Fetal calf serum (FCS) was purchased from Moregate Biotech, DMEM medium from Invitrogen Corp., docetaxel (tradename: Taxere) from Sigma-Aldrich, Inc., and WST-8 from Kishida Chemical Co., Ltd.
(§1) Human cervical cancer cells (HeLa S3) were obtained from the American Type Culture Collection (ATCC).
Cells were suspended in a DMEM medium containing 10% FCS, and the cell suspension was dispensed to two 96-well plastic plates at a rate of 750 cells/100 microliters per well. The plates were incubated overnight in 5% CO2-95% air at 37° C. A drug was subjected to graded dilution in dimethylsulfoxide and further diluted with DMSO or with a DMEM medium containing 10% FCS and also containing 0.6 nM docetaxel. Then, the dilutions were each dispensed to one of the plates on which cells had been disseminated, at a rate of 100 microliters per well. The final concentration of docetaxel at this stage was 0.3 nM. Also, the concentrations in the case of sole administration of the compound according to the invention were 0.003, 0.01, 0.03, 0.1, 0.3, 1, 3 and 10 μM. The plates were incubated for further three days in 5% CO2-95% air at 37° C. Cell growth after incubation was measured by the WST-8 method (H. Tominaga, et al., Anal. Commun., 36, 47-50 (1999)). Here, the WST-8 method refers to a method in which 20 microliters of a WST-8 reagent solution is added to each well, incubation is conducted at 37° C. for 60 minutes, the plate is stirred, and the amount of formazan produced is measured by a colorimetric method to determine the inhibitory rate of the drug. The growth inhibitory effects of docetaxel and of the compound according to the invention were determined, with the value obtained in sole treatment of DMSO being defined as 0%.

[2] = test system: Human cervical cancer cells (HeLa S3); test: Cell growth inhibitory effect, WST-8 method; format: cell-based; details: 72 h, HeLa S3, three days incubation, read-out: Cell growth inhibitory effect (HeLaS3) (IC50)
Protocol: Fetal calf serum (FCS) was purchased from Moregate Biotech, and DMEM medium was purchased from Invitrogen Corp. WST-8 was purchased from Kishida Chemical Co., Ltd.
as §1
Cells were suspended in a DMEM medium containing 10% FCS, and the cell suspension was dispensed to a 96-well plastic plate at a rate of 750 cells/100 microliters per well. The plate was incubated overnight in 5% CO2-95% air at 37° C. A drug was subjected to graded dilution in dimethylsulfoxide and further diluted with a DMEM medium containing 10% FCS. Then, the dilution was dispensed to the plate on which cells had been disseminated, at a rate of 100 microliters per well. The plate was incubated for further three days in 5% CO2-95% air at 37° C. Cell growth after incubation was measured by the WST-8 method (H. Tominaga, et al., Anal. Commun., 36, 47-50 (1999)). Here, the WST-8 method refers to a method in which 20 microliters of a WST-8 reagent solution is added to each well, incubation is conducted at 37° C. for 60 minutes, the plate is stirred, and the amount of formazan produced is measured by a colorimetric method to determine the inhibitory rate of the drug. The concentration for 50% growth inhibition (IC50, μM) of the compound was determined.

[3] = biological target: T1, GST-tagged human Aurora B(AurB)/His-tagged human INCENP complex proteins (Homo sapiens, UniProt Q96GD4); test: Aurora B inhibitory activity (Method A, IMAP kit); format: biochemical; details: 40 μM ATP, 25° C., 45 minutes
T1 construct: GST; purchased Carna Biosciences, Inc
T1 sequence (Q96GD4 whole entry): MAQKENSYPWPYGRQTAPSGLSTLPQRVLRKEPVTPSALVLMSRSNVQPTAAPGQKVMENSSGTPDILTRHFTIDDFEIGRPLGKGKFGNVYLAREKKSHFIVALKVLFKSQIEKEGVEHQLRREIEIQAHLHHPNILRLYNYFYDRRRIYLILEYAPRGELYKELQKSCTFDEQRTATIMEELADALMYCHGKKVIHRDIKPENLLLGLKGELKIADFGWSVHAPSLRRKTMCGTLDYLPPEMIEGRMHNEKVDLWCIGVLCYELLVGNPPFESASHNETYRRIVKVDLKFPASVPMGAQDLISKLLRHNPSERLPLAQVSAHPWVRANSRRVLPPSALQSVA
T1 sequence (Q9NQS7 803-916 partner limits assumed): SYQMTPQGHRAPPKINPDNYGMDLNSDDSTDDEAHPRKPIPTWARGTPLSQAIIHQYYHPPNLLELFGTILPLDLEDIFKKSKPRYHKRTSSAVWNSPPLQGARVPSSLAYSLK
Protocol: An assay development kit for IMAP (registered trademark) (Aurora B), purchased from Carna Biosciences, Inc., was used for phosphorylation reaction, and the phosphorylation of a substrate was detected using the IMAP technology. The assay development kit used is comprised of an assay buffer, GST-tagged human Aurora B(AurB)/His-tagged human INCENP complex proteins (amino acid sequence: 803-916, AAU04398.1), and an ATP/substrate solution. Using the same, the phosphorylation reaction was conducted in accordance with a partially revised protocol attached to the kit, and then the phosphorylation of the substrate was detected using the IMAP technology.
For the phosphorylation reaction, 384 well plate was used, and the reaction volume was 10 μl/well. The composition of the reaction buffer (assay buffer) is comprised of 20 mM of HEPES buffer (pH 7.4), 0.01% Tween-20, and 2 mM of dithiothreitol (DTT). Thereto, AurB/INCENP complex protein, 100 nM of the substrate, and 40 μM of ATP, and 1 mM of magnesium salt were added, and then the reaction was conducted at 25° C. for 45 minutes. Thereafter, in order to terminate and detect the reaction, 30 μl of the IMAP (registered trademark) binding reagent (IMAP Progressive Binding Reagent, R7284) that had been diluted (1:400) in the 1×IMAP binding buffer A (IMAP Progressive Binding Buffer A, 5× stock, R7282) was added to each well. The solution stood still for 60 minutes in the dark, and then fluorescence polarization was measured using a high-end microplate reader (excitation wavelength: 485 nm; emission wavelength: 520 nm).
(§2) The compound to be tested was added to the reaction system such that a dilution series of the compound in DMSO was prepared, and then 0.5 μL of this solution was added for the testing to each well. Each control well was provided by adding 0.5 μL of DMSO to the well in place of the DMSO solution containing the compound to be tested.

[4] = biological target: T2, His-tagged human Aurora A (Homo sapiens, UniProt O14965); test: Aurora A inhibitory activity (IMAP fluorescence polarization); format: biochemical; details: 20 μM ATP, 30° C., 120 minutes
T2 construct: His (N); made in house; host or cells: Escherichia coli BL21-CodonPlus(DE3)-RIL
T2 sequence (O14965 1-403): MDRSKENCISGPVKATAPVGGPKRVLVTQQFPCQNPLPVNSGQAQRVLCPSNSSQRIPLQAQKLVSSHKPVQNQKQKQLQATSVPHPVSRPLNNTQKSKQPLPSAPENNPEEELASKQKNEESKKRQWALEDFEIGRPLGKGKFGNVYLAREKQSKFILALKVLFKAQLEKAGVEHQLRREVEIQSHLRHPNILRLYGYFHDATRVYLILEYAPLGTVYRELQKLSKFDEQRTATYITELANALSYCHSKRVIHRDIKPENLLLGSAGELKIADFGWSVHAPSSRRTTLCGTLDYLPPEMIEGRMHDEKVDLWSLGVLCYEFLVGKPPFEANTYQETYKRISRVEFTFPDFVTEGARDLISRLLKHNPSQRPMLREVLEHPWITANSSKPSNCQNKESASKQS
Text: cDNA of N-terminal His-tagged human Aurora A was integrated into an expression vector, which was then highly expressed in Escherichia coli BL21-CodonPlus(DE3)-RIL cells. The Escherichia coli was harvested and lysed, and then the His-tagged human Aurora A protein was applied onto a nickel chelate column and eluted from the column with imidazole. The active fractions were desalted with a desalting column to give a purified enzyme.
For measurement of the activity of Aurora A, the substrate used was a synthetic peptide (5-FAM (5-carboxyfluorescein)-γ-aminobutyric acid-Ala-Leu-Arg-Arg-Ala-Ser-Leu-Gly-NH2) (SEQ.ID.NO.: 1), which was purchased from Toray Research Center, Inc.
For the phosphorylation reaction, the method by Upstate, Inc. [Kinase Profiler™ Assay Protocols] was referred to, and phosphorylation of the substrate was detected using IMAP® technology (Molecular Devices, Co. Ltd.) (Gaudet E W. et. al, J. Biomol. Screen, 8, 164-175 (2003)). Concretely, the phosphorylation reaction and the detection were carried out as follows:
The phosphorylation reaction was conducted using 384 well plate, and the reaction volume was 10 μl/well. The reaction buffer is comprised of 50 mM Tris-chloride buffer (pH 7.4), 15 mM magnesium acetate, and 0.2 mM ethylenediamine-N,N,N′,N′-tetraacetic acid (EDTA). Thereto, the purified Aurora A protein, 100 nM of the peptide substrate, and 20 μM of adenosine 5′-triphosphate (ATP) were added, and then the reaction was carried out at 30° C. for 120 minutes.
Thereafter, in order to terminate and detect the reaction, 30 μl of the IMAP (registered trademark) binding reagent (IMAP Progressive Binding Reagent, R7284) that had been diluted (1:400) in the 1×IMAP binding buffer A (IMAP Progressive Binding Buffer A, 5× stock, R7282) was added to each well. The solution stood still for 60 minutes in the dark, and then fluorescence polarization was measured using a high-end microplate reader (excitation wavelength: 485 nm; emission wavelength: 520 nm).
as §2, with “in dimethylsulfoxide (DMSO)” for “in DMSO”

[5] = Homo sapiens, HeLa S3, 72 h, read-out: Cell growth inhibitory effect by sole administration of the compound of Example (%)
[6] = compound 30 nM + docetaxel 0.3 nM

Row | IC50 [2] [nM] | IC50 [3] [nM] | IC50 [4] [nM] | Compound | inhibition at 0.03 µM [1, 5] [%] | Cell growth inhibitory effect by combined administration of docetaxel and the compound of Example (%) [1, 6] [%] | inhibition at 0.01 µM ([1]; Homo sapiens, HeLa S3, 72 h, compound 10 nM alone, read-out: Cell growth inhibitory effect by sole administration of the compound of Example (%)) [%] | Cell growth inhibitory effect by combined administration of docetaxel and the compound of Example (%) ([1]; compound 10 nM + docetaxel 0.3 nM)
1 | 220 | 35.8 | 0.25 | O=C(c1cccc(C(F)(F)F)c1F)N1CCC(Cc2cccc(Nc3cc[nH]n3)n2)(c2n[nH]c(=O)o2)CC1 [Example 9, 5-(1-(2-fluoro-3-(trifluoromethyl)benzoyl)-4-((6-(1H-pyrazol-3-ylamino)pyridin-2-yl)methyl)piperidin-4-yl)-1,3,4-oxadiazol-2(3H)-one] | 20.3 | 90.9 | – | –
2 | 280 | 166 | 0.27 | O=C(c1cccc(Cl)c1F)N1CCC(Cc2cccc(Nc3cc[nH]n3)n2)(c2n[nH]c(=O)o2)CC1 [Example 10, 5-(1-(3-chloro-2-fluorobenzoyl)-4-((6-(1H-pyrazol-3-ylamino)pyridin-2-yl)methyl)piperidin-4-yl)-1,3,4-oxadiazol-2(3H)-one trifluoroacetate] | 3.3 | 84.8 | – | –
3 | 100 | 381 | 0.3 | O=C(c1cccc(Cl)c1F)N1CCC(Cc2cc(-c3ccccc3)cc(Nc3cc[nH]n3)n2)(c2n[nH]c(=O)o2)CC1 [Example 17, 5-(1-(3-chloro-2-fluorobenzoyl)-4-((4-phenyl-6-(1H-pyrazol-3-ylamino)pyridin-2-yl)methyl)piperidin-4-yl)-1,3,4-oxadiazol-2(3H)-one] | – | – | 4.2 | 80.8
